{"source": "ChEMBL document CHEMBL1201862", "about": "“PubChem BioAssay data set” (2004)", "experiment_in_all_cases": "inhibition of tumour cell growth, NCI panel, 48 h", "key": {"[1]": {"test_system": "LOX IMVI"}, "[2]": {"test_system": "OVCAR-4"}, "[3]": {"test_system": "SF-268"}, "[4]": {"test_system": "MDA-MB-231"}, "[5]": {"test_system": "IGROV-1"}, "[6]": {"test_system": "CCRF-CEM"}, "[7]": {"test_system": "SK-MEL-2"}, "[8]": {"test_system": "RPMI-8226"}, "[9]": {"test_system": "HCT-116"}, "[10]": {"test_system": "SK-MEL-28"}, "[11]": {"test_system": "DU-145"}, "[12]": {"test_system": "OVCAR-8"}, "[13]": {"test_system": "786-0"}, "[14]": {"test_system": "SNB-75"}, "[15]": {"test_system": "CAKI-1"}, "[16]": {"test_system": "HL-60"}, "[17]": {"test_system": "UACC-62"}, "[18]": {"test_system": "A498"}, "[19]": {"test_system": "MCF7"}, "[20]": {"test_system": "T47D"}, "[21]": {"test_system": "Malme-3M"}, "[22]": {"test_system": "HCC 2998"}, "[23]": {"test_system": "M14"}, "[24]": {"test_system": "TK-10"}, "[25]": {"test_system": "HT-29"}, "[26]": {"test_system": "UO-31"}, "[27]": {"test_system": "SW-620"}, "[28]": {"test_system": "HOP-62"}, "[29]": {"test_system": "MDA-N"}, "[30]": {"test_system": "MDA-MB-435"}, "[31]": {"test_system": "ACHN"}, "[32]": {"test_system": "PC-3"}, "[33]": {"test_system": "MOLT-4"}, "[34]": {"test_system": "NCI-H226"}, "[35]": {"test_system": "NCI-H522"}, "[36]": {"test_system": "NCI-H23"}, "[37]": {"test_system": "OVCAR-5"}, "[38]": {"test_system": "SN12C"}, "[39]": {"test_system": "SK-MEL-5"}, "[40]": {"test_system": "A549"}, "[41]": {"test_system": "OVCAR-3"}, "[42]": {"test_system": "SNB-19"}, "[43]": {"test_system": "BT-549"}, "[44]": {"test_system": "UACC-257"}, "[45]": {"test_system": "K562"}, "[46]": {"test_system": "NCI-H460"}, "[47]": {"test_system": "SR"}, "[48]": {"test_system": "HCT-15"}, "[49]": {"test_system": "U-251"}}, "note": "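Assay format: 96-well plates, 48-hour exposure. GI50: concentration for 50% inhibition of growth.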 The source made the active and inactive calls. No stated cut-off is given here; in the data, active = GI50 up to about 1.1 µM and inactive = higher.", "data": [{"smiles": "Cc1ccc(/N=N/C(=O)NNc2ccc(C)c([N+](=O)[O-])c2)cc1[N+](=O)[O-]", "values": [{"measurement": "GI50", "setting": "[1]", "value": "17.3 µM (inactive)"}, {"measurement": "GI50", "setting": "[2]", "value": "19.4 µM (inactive)"}, {"measurement": "GI50", "setting": "[3]", "value": "28.6 µM (inactive)"}, {"measurement": "GI50", "setting": "[4]", "value": "36.6 µM (inactive)"}, {"measurement": "GI50", "setting": "[5]", "value": "17.7 µM (inactive)"}, {"measurement": "GI50", "setting": "[6]", "value": "19.2 µM (inactive)"}, {"measurement": "GI50", "setting": "[7]", "value": "14.2 µM (inactive)"}, {"measurement": "GI50", "setting": "[8]", "value": "19.9 µM (inactive)"}, {"measurement": "GI50", "setting": "[9]", "value": "23.7 µM (inactive)"}, {"measurement": "GI50", "setting": "[10]", "value": "26.1 µM (inactive)"}, {"measurement": "GI50", "setting": "[11]", "value": "25.1 µM (inactive)"}, {"measurement": "GI50", "setting": "[12]", "value": "26.2 µM (inactive)"}, {"measurement": "GI50", "setting": "[13]", "value": "28.2 µM (inactive)"}, {"measurement": "GI50", "setting": "[14]", "value": "19.6 µM (inactive)"}, {"measurement": "GI50", "setting": "[15]", "value": "18.8 µM (inactive)"}, {"measurement": "GI50", "setting": "[16]", "value": "17.9 µM (inactive)"}, {"measurement": "GI50", "setting": "[17]", "value": "13.9 µM (inactive)"}, {"measurement": "GI50", "setting": "[18]", "value": "14.7 µM (inactive)"}, {"measurement": "GI50", "setting": "[19]", "value": "23.2 µM (inactive)"}, {"measurement": "GI50", "setting": "[20]", "value": "4.45 µM (inactive)"}, {"measurement": "GI50", "setting": "[21]", "value": "30.8 µM (inactive)"}, {"measurement": "GI50", "setting": "[22]", "value": "17.4 µM (inactive)"}, {"measurement": "GI50", "setting": "[23]", "value": "40 µM (inactive)"}, {"measurement": "GI50", "setting": "[24]", "value": "45.1 µM (inactive)"}, {"measurement": "GI50", "setting": "[25]", "value": "53.2 µM (inactive)"}, {"measurement": "GI50", "setting": "[26]", "value": "15.2 µM (inactive)"}, {"measurement": "GI50", "setting": "[27]", "value": "41 µM (inactive)"}, {"measurement": "GI50", "setting": "[28]", "value": "20.8 µM (inactive)"}, {"measurement": "GI50", "setting": "[29]", "value": "32.7 µM (inactive)"}, {"measurement": "GI50", "setting": "[30]", "value": "36.5 µM (inactive)"}, {"measurement": "GI50", "setting": "[31]", "value": "24.8 µM (inactive)"}, {"measurement": "GI50", "setting": "[32]", "value": "18.7 µM (inactive)"}, {"measurement": "GI50", "setting": "[33]", "value": "12.5 µM (inactive)"}, {"measurement": "GI50", "setting": "[34]", "value": "51.9 µM (inactive)"}, {"measurement": "GI50", "setting": "[35]", "value": "20.6 µM (inactive)"}, {"measurement": "GI50", "setting": "[36]", "value": "30.2 µM (inactive)"}, {"measurement": "GI50", "setting": "[37]", "value": "30.1 µM (inactive)"}, {"measurement": "GI50", "setting": "[38]", "value": "31.4 µM (inactive)"}, {"measurement": "GI50", "setting": "[39]", "value": "22.9 µM (inactive)"}, {"measurement": "GI50", "setting": "[40]", "value": "28.8 µM (inactive)"}, {"measurement": "GI50", "setting": "[41]", "value": "28.1 µM (inactive)"}, {"measurement": "GI50", "setting": "[42]", "value": "36.3 µM (inactive)"}, {"measurement": "GI50", "setting": "[43]", "value": "30.8 µM (inactive)"}, {"measurement": "GI50", "setting": "[44]", "value": "25.8 µM (inactive)"}, {"measurement": "GI50", "setting": "[45]", "value": "11.9 µM (inactive)"}, {"measurement": "GI50", "setting": "[46]", "value": "28.6 µM (inactive)"}, {"measurement": "GI50", "setting": "[47]", "value": "18.9 µM (inactive)"}, {"measurement": "GI50", "setting": "[48]", "value": 30.1, "unit": "µM"}, {"measurement": "GI50", "setting": "[49]", "value": "29.9 µM (inactive)"}]}]}
